Biological target: human VR1 (Homo sapiens, UniProt Q8NER1)
Assay: Acid stimulation assay (acid-induced intracellular calcium change, FDSS 6000)
Assay type: cell-based
Conditions: final assay buffer pH5.8, 15 min pre-incubation, read-out: IC50 (nM) Low pH
Excerpt: VR1 antagonistic activity can be determined by the Ca^2+ imaging assay using human VR1 highly expressing cells. The cells that highly express human VR1 receptors are obtainable from several different conventional methods. The one standard method is cloning from human Dorsal Root Ganglion (DRG) or kidney according to the methods such as described in the journal article; Nature, 389, pp 816-824, 1997. Alternatively VR1 receptors highly expressing human keratinocytes are also known and published in the journal article (Biochemical and Biophysical Research Communications, 291, pp 124-129, 2002). […] Furthermore, the method to up regulate human VR1 gene, which is usually a silent gene or don't produce detectable level of VR1 receptors, is also available to obtain propriety cells. Such genetic modification method was described in detail; Nat. Biotechnol., 19, pp 440-445, 2001.
The cells that express human VR1 receptors were maintained in culture flask at 37° C. in an environment containing 5% CO2 until use in the assay. The intracellular Ca^2+ imaging assay to determine VR1 antagonistic activities were done by following procedures.
The culture medium was removed from the flask and fura-2/AM fluorescent calcium indicator was added to the flask at a concentration of 5 μM in the medium. The flask was placed in CO2 incubator and incubated for 1 hour. Then the cells expressing the human VR1 receptors were detached from the flask follow by washing with phosphate buffer saline, PBS(−) and re-suspended in assay buffer. The 80 tit of aliquot of cell suspension (3.75×10^5 cells/ml) was added to the assay plate and the cells were spun down by centrifuge (950 rpm, 20° C., 3 minutes).
(§1) The Acid-induced changes in the intracellular calcium concentration were monitored using FDSS 6000 (Hamamatsu Photonics, Japan), a fluorometric imaging system. The cell suspension in resting buffer (HBSS supplemented with 10 mM HEPES, pH 7.4) were pre-incubated with varying concentrations of the test compounds or resting buffer (buffer control) for 15 minutes at room temperature under the dark condition. The cells were automatically added the stimulating solution (HBSS supplemented with MES, final assay buffer pH5.8) by the FDSS 6000.
as §1, with “7.4) was” for “7.4) were”, “under” for “under the”, “dark conditions.” for “dark condition.”, “added to” for “added”

Chain of human VR1 (Q8NER1 whole entry): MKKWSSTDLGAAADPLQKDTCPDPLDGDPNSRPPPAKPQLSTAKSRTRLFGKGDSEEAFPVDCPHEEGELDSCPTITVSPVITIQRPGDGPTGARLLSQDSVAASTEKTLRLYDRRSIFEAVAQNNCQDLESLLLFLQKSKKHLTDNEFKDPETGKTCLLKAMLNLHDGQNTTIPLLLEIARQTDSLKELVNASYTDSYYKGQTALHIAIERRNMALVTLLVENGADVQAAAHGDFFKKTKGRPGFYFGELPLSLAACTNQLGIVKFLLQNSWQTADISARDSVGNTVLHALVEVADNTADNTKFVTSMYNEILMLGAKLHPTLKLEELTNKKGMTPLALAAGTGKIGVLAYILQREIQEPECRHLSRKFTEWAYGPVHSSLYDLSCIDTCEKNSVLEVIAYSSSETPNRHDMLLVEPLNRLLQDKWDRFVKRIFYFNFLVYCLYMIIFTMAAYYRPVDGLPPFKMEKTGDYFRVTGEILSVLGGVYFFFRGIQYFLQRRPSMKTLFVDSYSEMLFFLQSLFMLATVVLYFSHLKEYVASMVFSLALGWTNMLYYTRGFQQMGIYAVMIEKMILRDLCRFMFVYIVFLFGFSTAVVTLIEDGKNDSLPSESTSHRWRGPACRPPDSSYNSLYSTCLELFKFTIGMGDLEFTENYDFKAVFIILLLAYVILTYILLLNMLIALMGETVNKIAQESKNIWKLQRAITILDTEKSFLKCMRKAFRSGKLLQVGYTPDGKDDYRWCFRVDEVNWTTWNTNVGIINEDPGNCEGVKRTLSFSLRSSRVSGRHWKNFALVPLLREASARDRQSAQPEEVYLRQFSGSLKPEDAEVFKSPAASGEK

Compound	IC50
Cc1cc([C@@H](C)NC(=O)c2cnc3cc(C(C)(C)C)ccc3c2C)ccc1NS(C)(=O)=O [Example 42, 7-TERT-BUTYL-4-METHYL-N-((1R)-1-{3-METHYL-4-[(METHYLSULFONYL)AMINO]PHENYL}-ETHYL)QUINOLINE-3-CARBOXAMIDE]	532 nM
CCOc1ccc2cc(C(=O)N[C@H](C)c3ccc(NS(C)(=O)=O)c(C)c3)ccc2n1 [Example 44, 2-ETHOXY-N-((1R)-1-{3-METHYL-4-[(METHYLSULFONYL)AMINO]PHENYL}ETHYL)-QUINOLINE-6-CARBOXAMIDE]	15 nM
Cc1cc([C@@H](C)NC(=O)c2ccc3cc(C(F)(F)F)ccc3c2)ccc1NS(C)(=O)=O [Example 51, N-((1R)-1-{3-METHYL-4-[(METHYLSULFONYL)AMINO]PHENYL}ETHYL)-6-(TRIFLUORO-METHYL)-2-NAPHTHAMIDE]	1 nM
Cc1cc([C@@H](C)NC(=O)c2ccc3cc(C4CC4)ccc3c2)c(Cl)cc1NS(C)(=O)=O [Example 52, (R)—N-(1-(2-CHLORO-5-METHYL-4-(METHYLSULFONAMIDO)PHENYL)ETHYL)-6-CYCLOPROPYL-2-NAPHTHAMIDE]	22 nM
Cc1cc([C@@H](C)NC(=O)c2ccc3cc(C(F)(F)F)ccc3c2)ncc1NS(C)(=O)=O [Example 54, N-((1R)-1-{4-METHYL-5-[(METHYLSULFONYL)AMINO]PYRIDIN-2-YL}ETHYL)-6-(TRIFLUOROMETHYL)-2-NAPHTHAMIDE]	12 nM
Cc1cc([C@@H](C)NC(=O)c2ccc3cc(C(F)(F)F)ccc3n2)c(Cl)cc1NS(C)(=O)=O [Example 57, (R)—N-(1-(2-CHLORO-5-METHYL-4-(METHYLSULFONAMIDO)PHENYL)ETHYL)-6-(TRIFLUOROMETHYL)QUINOLINE-2-CARBOXAMIDE]	58 nM
Cc1cc([C@@H](C)NC(=O)c2ccc3cc(C4(C)CC4)ccc3c2)ncc1NS(C)(=O)=O [Example 58, (R)—N-(1-(4-METHYL-5-(METHYLSULFONAMIDO)PYRIDIN-2-YL)ETHYL)-6-(1-METHYL-CYCLOPROPYL)-2-NAPHTHAMIDE]	7 nM
Cc1cc([C@@H](C)NC(=O)c2ccc3nc(C(F)(F)F)cc(N4CCCCC4)c3c2)c(F)cc1NS(C)(=O)=O [Example 70, 4-PIPERIDIN-1-YL-2-TRIFLUOROMETHYL-QUINOLINE-6-CARBOXYLIC ACID [(R)-1-(2-FLUORO-4-METHANESULFONYLAMINO-5-METHYL-PHENYL)-ETHYL]-AMIDE]	26 nM
C[C@@H](NC(=O)c1ccc2cc(C(F)(F)F)ccc2c1)c1ccc(NS(C)(=O)=O)c(CO)c1 [Example 74, N-((1R)-1-{3-(HYDROXYMETHYL)-4-[(METHYLSULFONYL)AMINO]PHENYL}ETHYL)-6-(TRIFLUOROMETHYL)-2-NAPHTHAMIDE]	13 nM
Cc1cc([C@@H](C)NC(=O)c2ccc3nc(C(F)(F)F)cc(N4CCC(C(F)(F)F)CC4)c3c2)c(F)cc1NS(C)(=O)=O [Example 76, 2-TRIFLUOROMETHYL-4-(4-TRIFLUOROMETHYL-PIPERIDIN-1-YL)-QUINOLINE-6-CARBOXYLIC ACID [(R)-1-(2-FLUORO-4-METHANESULFONYLAMINO-5-METHYL-PHENYL)-ETHYL]-AMIDE]	48 nM
Cc1cc([C@@H](C)NC(=O)c2ccc3nc(C(F)(F)F)nc(N4CC(C)OC(C)C4)c3c2)c(F)cc1NS(C)(=O)=O (stereo partly drawn) [Example 86, 4-(2,6-DIMETHYL-MORPHOLIN-4-YL)-2-TRIFLUOROMETHYL-QUINAZOLINE-6-CARBOXYLIC ACID [(R)-1-(2-FLUORO-4-METHANESULFONYLAMINO-5-METHYL-PHENYL)-ETHYL]-AMIDE]	7 nM
Cc1cc([C@@H](C)NC(=O)c2cnc3cc(C4CC4)cnc3c2)c(F)cc1NS(C)(=O)=O [Example 87, 7-CYCLOPROPYL-[1.5]NAPHTHYRIDINE-3-CARBOXYLIC ACID [(R)-1-(2-FLUORO-4-METHANESULFONYLAMINO-5-METHYL-PHENYL)-ETHYL]-AMIDE]	111 nM
COc1ccccc1N1CCN(c2nc(C(F)(F)F)nc3ccc(C(=O)N[C@H](C)c4cc(C)c(NS(C)(=O)=O)cc4F)cc23)CC1 [Example 88, 4-[4-(2-METHOXY-PHENYL)-PIPERAZIN-1-YL]-2-TRIFLUOROMETHYL-QUINAZOLINE-6-CARBOXYLIC ACID [(R)-1-(2-FLUORO-4-METHANESULFONYLAMINO-5-METHYL-PHENYL)-ETHYL]-AMIDE]	50 nM
Cc1cc([C@@H](C)NC(=O)c2ccc3nc(C(F)(F)F)cc(N4CC(F)(F)C4)c3c2)c(F)cc1NS(C)(=O)=O [Example 92, 4-(3,3-DIFLUOROAZETIDIN-1-YL)-2-TRIFLUOROMETHYLQUINOLINE-6-CARBOXYLIC ACID [(R)-1-(2-FLUORO-4-METHANESULFONYLAMINO-5-METHYLPHENYL)-ETHYL]AMIDE]	24 nM
Cc1cc([C@@H](C)NC(=O)c2ccc3nc(C(F)(F)F)cc(N4CCC[C@@H]4CO)c3c2)c(F)cc1NS(C)(=O)=O [Example 93, 4-((R)-2-HYDROXYMETHYLPYRROLIDIN-1-YL)-2-TRIFLUOROMETHYLQUINOLINE-6-CARBOXYLIC ACID [(R)-1-(2-FLUORO-4-METHANESULFONYLAMINO-5-METHYLPHENYL)ETHYL]AMIDE]	370 nM

Next, values leading:

IC50	Compound
30 nM	Cc1cc([C@@H](C)NC(=O)c2cnc3cc(C(F)(F)F)ccc3c2)c(F)cc1NS(C)(=O)=O [Example 43, N-((1R)-1-{2-FLUORO-5-METHYL-4-[(METHYLSULFONYL)AMINO]PHENYL}ETHYL)-7-(TRIFLUOROMETHYL)QUINOLINE-3-CARBOXAMIDE]
36 nM	Cc1cc([C@@H](C)NC(=O)c2cnc3cc(C(F)(F)F)ccc3c2)c(Cl)cc1NS(C)(=O)=O [Example 53, (R)—N-(1-(2-CHLORO-5-METHYL-4-(METHYLSULFONAMIDO)PHENYL)ETHYL)-7-(TRIFLUOROMETHYL)QUINOLINE-3-CARBOXAMIDE]
293 nM	Cc1cc([C@@H](C)NC(=O)c2ccc3nc(N4CCCC4)ccc3c2)c(F)cc1NS(C)(=O)=O [Example 68, (R)—N-(1-(2-FLUORO-5-METHYL-4-(METHYLSULFONAMIDO)PHENYL)ETHYL)-2-(PYRROLIDIN-1-YL)QUINOLINE-6-CARBOXAMIDE]
29 nM	Cc1cc([C@@H](C)NC(=O)c2ccc3nc(C(F)(F)F)cc(N4CCC(F)(F)CC4)c3c2)c(F)cc1NS(C)(=O)=O [Example 73, 4-(4,4-DIFLUORO-PIPERIDIN-1-YL)-2-TRIFLUOROMETHYL-QUINOLINE-6-CARBOXYLIC ACID [(R)-1-(2-FLUORO-4-METHANESULFONYLAMINO-5-METHYL-PHENYL)-ETHYL]-AMIDE]
4 nM	Cc1cc([C@@H](C)NC(=O)c2ccc3ccc(C(F)(F)F)cc3c2)ccc1NS(C)(=O)=O [Example 77]
748 nM	Cc1cc([C@@H](C)NC(=O)c2ccc3nc(N4CCOCC4)ccc3c2)c(F)cc1NS(C)(=O)=O [Example 81, ((R)—N-(1-(2-FLUORO-5-METHYL-4-(METHYLSULFONAMIDO)PHENYL)ETHYL)-2-MORPHOLINOQUINOLINE-6-CARBOXAMIDE]
51 nM	Cc1cc([C@@H](C)NC(=O)c2ccc3nc(C(F)(F)F)nc(N4CCCCC4)c3c2)c(F)cc1NS(C)(=O)=O [Example 84, 4-PIPERIDIN-1-YL-2-TRIFLUOROMETHYL-QUINAZOLINE-6-CARBOXYLIC ACID [(R)-1-(2-FLUORO-4-METHANESULFONYLAMINO-5-METHYL-PHENYL)-ETHYL]-AMIDE]
60 nM	Cc1cc([C@@H](C)NC(=O)c2ccc3nc(C(F)(F)F)nc(N4CCN(c5cccc(Cl)c5)CC4)c3c2)c(F)cc1NS(C)(=O)=O [Example 85, 4-[4-(3-CHLORO-PHENYL)-PIPERAZIN-1-YL]-2-TRIFLUOROMETHYL-QUINAZOLINE-6-CARBOXYLIC ACID [(R)-1-(2-FLUORO-4-METHANESULFONYLAMINO-5-METHYL-PHENYL)-ETHYL]-AMIDE]
112 nM	Cc1cc([C@@H](C)NC(=O)c2ccc3nc(C(F)(F)F)cc(N4CC[C@@H](O)C4)c3c2)c(F)cc1NS(C)(=O)=O [Example 90, 4-((R)-3-HYDROXYPYRROLIDIN-1-YL)-2-TRIFLUOROMETHYLQUINOLINE-6-CARBOXYLIC ACID [(R)-1-(2-FLUORO-4-METHANESULFONYLAMINO-5-METHYLPHENYL)ETHYL]AMIDE]
366 nM	Cc1cc([C@@H](C)NC(=O)c2ccc3nc(C(F)(F)F)cc(N4CC[C@H](O)C4)c3c2)c(F)cc1NS(C)(=O)=O [Example 91, 4-((S)-3-HYDROXY-PYRROLIDIN-1-YL)-2-TRIFLUOROMETHYLQUINOLINE-6-CARBOXYLIC ACID [(R)-1-(2-FLUORO-4-METHANESULFONYLAMINO-5-METHYLPHENYL)ETHYL]AMIDE]
